System: spontaneously hypertensive rats (SHRs)
Assay: Systolic blood pressure by the tail-cuff method in spontaneously hypertensive rats, oral administration once daily for 29 days
Assay type: in vivo, rat
Settings: for Systolic blood pressure compared with the 1st (vehicle) group: 5 mg/kg (2nd group), from Day 8 to the end of the test period; for Systolic blood pressure: male SHR/Izm rats, mean ± standard error, n=6
Protocol: The rats used were spontaneously hypertensive rats (SHRs). The systolic blood pressure levels of 18 male SHR/Izm rats (10 week olds; Japan SLC, Inc.) were measured on Day 1 of administration. The rats were divided into 3 groups of 6 rats in a manner such that the mean values of the groups were almost equivalent to one another. The groups were referred to as the 1st to the 3rd groups. A 0.5 w/v % methylcellulose aqueous solution was orally administered to the rats in the 1st group. A 0.5 w/v % methylcellulose aqueous solution containing pyrroloquinoline quinone disodium salt (hereinafter, referred to as PQQ disodium salt; Mitsubishi Gas Chemical Company, Inc.) suspended therein (1 mg/mL) was orally administered to the rats in the 2nd group. A 0.5 w/v % methylcellulose aqueous solution containing PQQ disodium salt suspended therein (4 mg/mL) was orally administered to the rats in the 3rd group. Oral administration was carried out in a volume of 5 mL/kg once daily for 29 days. The single dose of PQQ disodium salt was 5 mg/kg in the 2nd group and the same was 20 mg/kg in the 3rd group. On Days 1, 8, 15, 22, and 29 of administration, systolic blood pressure was measured before administration (24 hours after administration on the previous day) and 4 hours after administration of the PQQ disodium salt. Systolic blood pressure was measured by the tail-cuff method with the use of an unheated non-invasive blood pressure monitor for mice and rats (MK-2000, Muromachi Kikai Co., Ltd.). Measurement was carried out 5 times per instance. The mean value of three systolic blood pressure values obtained by excluding the highest value and the lowest value was determined to be the value for an individual rat. The value for each group was expressed as the mean value±standard error (n=6). A statistically significant difference was obtained at each measurement point by carrying out one-way analysis of variance. When the significance was confirmed by one-way analysis of variance, a parametric Dunnett's multiple comparison test was carried so that a significant difference between the 2nd and the 1st group and between the 3rd group and the 1st group were obtained. In addition, in a case in which there was a significance level (p value) of less than 0.05, it was determined that there was a significant difference.

O=C(O)c1cc(C(=O)O)c2c(n1)C(=O)C(=O)c1cc(C(=O)O)[nH]c1-2.[Na].[Na] [PQQ disodium salt, pyrroloquinoline quinone disodium salt]
Systolic blood pressure compared with the 1st (vehicle) group (4 hours after administration): lower than that for the 1st group
Systolic blood pressure compared with the 1st (vehicle) group (before administration): lower than that for the 1st group
Systolic blood pressure compared with the 2nd (5 mg/kg) group (20 mg/kg (3rd group), 4 hours after administration): lower than that for the 2nd group
Systolic blood pressure compared with the 1st (vehicle) group, significance (20 mg/kg (3rd group), 4 hours after administration on Day 29, Dunnett's test, p < 0.05): significantly lower than that for the 1st group
Systolic blood pressure compared with the 2nd (5 mg/kg) group (20 mg/kg (3rd group), before administration): lower than that for the 2nd group
Hypertension-ameliorating effect in hypertension rats (overall conclusion) (SHR rats, 5 and 20 mg/kg oral once daily for 29 days): blood pressure-reducing effects, namely, hypertension-ameliorating effects, were observed
Systolic blood pressure (5 mg/kg oral once daily (2nd group), Day 1, 4 hours after administration): 172 ± 4 mmHg
Systolic blood pressure (5 mg/kg oral once daily (2nd group), Day 1, before administration (baseline)): 172 ± 3 mmHg
Systolic blood pressure (5 mg/kg oral once daily (2nd group), Day 8, 4 hours after administration): 175 ± 3 mmHg
Systolic blood pressure (5 mg/kg oral once daily (2nd group), Day 8, before administration (24 hours after previous dose)): 177 ± 3 mmHg
Systolic blood pressure (5 mg/kg oral once daily (2nd group), Day 15, 4 hours after administration): 184 ± 3 mmHg
Systolic blood pressure (5 mg/kg oral once daily (2nd group), Day 15, before administration (24 hours after previous dose)): 185 ± 3 mmHg
Systolic blood pressure (5 mg/kg oral once daily (2nd group), Day 22, 4 hours after administration): 189 ± 3 mmHg
Systolic blood pressure (5 mg/kg oral once daily (2nd group), Day 22, before administration (24 hours after previous dose)): 189 ± 3 mmHg
Systolic blood pressure (5 mg/kg oral once daily (2nd group), Day 29, 4 hours after administration): 190 ± 1 mmHg
Systolic blood pressure (5 mg/kg oral once daily (2nd group), Day 29, before administration (24 hours after previous dose)): 190 ± 1 mmHg
Systolic blood pressure (20 mg/kg oral once daily (3rd group), Day 1, 4 hours after administration): 171 ± 3 mmHg
Systolic blood pressure (20 mg/kg oral once daily (3rd group), Day 1, before administration (baseline)): 172 ± 3 mmHg
Systolic blood pressure (20 mg/kg oral once daily (3rd group), Day 8, 4 hours after administration): 171 ± 2 mmHg
Systolic blood pressure (20 mg/kg oral once daily (3rd group), Day 8, before administration (24 hours after previous dose)): 174 ± 2 mmHg
Systolic blood pressure (20 mg/kg oral once daily (3rd group), Day 15, 4 hours after administration): 180 ± 3 mmHg
Systolic blood pressure (20 mg/kg oral once daily (3rd group), Day 15, before administration (24 hours after previous dose)): 182 ± 3 mmHg
Systolic blood pressure (20 mg/kg oral once daily (3rd group), Day 22, 4 hours after administration): 184 ± 3 mmHg
Systolic blood pressure (20 mg/kg oral once daily (3rd group), Day 22, before administration (24 hours after previous dose)): 184 ± 3 mmHg
Systolic blood pressure (20 mg/kg oral once daily (3rd group), Day 29, 4 hours after administration, p < 0.05 relative to the 1st (vehicle) group): 184 ± 3 mmHg
Systolic blood pressure (20 mg/kg oral once daily (3rd group), Day 29, before administration (24 hours after previous dose)): 186 ± 3 mmHg

Reference: patent publication US20100190815A1, “HYPERTENSION-AMELIORATING AGENT” (KYOWA HAKKO BIO CO., LTD., priority 2006, published 2010)
